Measurements taken from US10285982B2, “3-(1H-pyrrolo[2,3-B]pyridin-2-yl)-1H-pyrazolo[3,4-C]pyridines and therapeutic uses thereof” (Samumed, LLC, priority 2015, dated 2019).

Assays:
Format in all cases: cell-based
[1] = test system: SW480 colon cancer cells; experiment: Cell viability assay (CellTiter-Blue); details: Homo sapiens, 96 h, four days; for inhibition at 10 µM: given where EC50 >10 μM, read-out: percent inhibition at 10 μM
Outline: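 4-day exposure, 37 °C/5% CO2; ~2×10^3 SW480 cells/well; 8-pt 1:3 curve, 10–0.0045 μM, duplicates vs DMSO controls. Resazurin→resorufin fluorescence readout, ~3 h. EC50 by nonlinear fit; if >10 μM, % inhibition at 10 μM reported.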

[2] = test system: Wnt activity (Sp5-Luc reporter, SW480 colon carcinoma cells); experiment: Wnt activity screening assay, Sp5-Luc reporter gene in SW480 cells; details: Homo sapiens; for EC50: overnight incubation; for inhibition at 10 µM: given where EC50 >10 μM, read-out: percent inhibition at 10 μM
Outline: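 SW480 cells stably transduced with an Sp5 promoter (eight TCF/LEF sites)–firefly luciferase lentiviral reporter, plated at 4,000 cells/well in 1% FBS medium with compounds (10-point 1:3 series from 10 μM, 0.1% DMSO) overnight at 37 °C. BrightGlo luminescence normalised to DMSO; EC50 by four-parameter fit, else % inhibition at 10 μM.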

[3] = test system: primary human fibroblasts derived from IPF patients (LL29 cells) treated with TGF-β1; experiment: Inhibition of fibrotic process, αSMA staining in TGF-β1 treated LL29 fibroblasts; details: Fibroblast; for EC50: 96 h, % αSMA positive LL29 cells, TGF-β1 20 ng/mL, 4 days; for inhibition at 10 µM: given where EC50 >10 μM, αSMA, LL29 cells, TGF-β1, read-out: percent inhibition at 10 μM
Outline: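 Read-out: fraction of αSMA-positive cells by high-content imaging, SYTOX-stained dead cells excluded, normalized to TGF-β1/DMSO wells. Cells got compound (10 μM–[…], 11 points) plus TGF-β1 20 ng/mL for 4 days. EC50 from triplicate curves; above 10 μM, % inhibition at 10 μM given.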

EC50 [1] [µM] | EC50 [2] [µM] | SMILES | EC50 [3] [nM] | inhibition at 10 µM [1] [%] | inhibition at 10 µM [2] [%] | inhibition at 10 µM [3] [%]
> 10 | > 10 | CN1CCN(c2ccnc3[nH]c(-c4n[nH]c5cnc(-c6cn[nH]c6)cc45)cc23)CC1 [Compound 635, 3-(4-(4-Methylpiperazin-1-yl)-1H-pyrrolo[2,3-b]pyridin-2-yl)-5-(1H-pyrazol-4-yl)-1H-pyrazolo[3,4-c]pyridine] | > 10000 | 10.7 | 25.4 | 44.9
> 10 | > 10 | CN1CCN(c2ccnc3[nH]c(-c4n[nH]c5cnc(-c6cncc(NC(=O)CC7CCNCC7)c6)cc45)cc23)CC1 [Compound 641, N-(5-(3-(4-(4-Methylpiperazin-1-yl)-1H-pyrrolo[2,3-b]pyridin-2-yl)-1H-pyrazolo[3,4-c]pyridin-5-yl)pyridin-3-yl)-2-(piperidin-4-yl)acetamide] | 4970 | 13.1 | 8 | 
> 10 | > 10 | Cn1cc(-c2cc3c(-c4cc5cccnc5[nH]4)n[nH]c3cn2)cn1 [Compound 652, 5-(1-Methyl-1H-pyrazol-4-yl)-3-(1H-pyrrolo[2,3-b]pyridin-2-yl)-1H-pyrazolo[3,4-c]pyridine] | 473 | 0 | 21.6 | 
> 10 | > 10 | c1csc(-c2ccnc3[nH]c(-c4n[nH]c5cnc(-c6cncc(OC7CCCCC7)c6)cc45)cc23)c1 [Compound 703, 5-(5-(Cyclohexyloxy)pyridin-3-yl)-3-(4-(thiophen-2-yl)-1H-pyrrolo[2,3-b]pyridin-2-yl)-1H-pyrazolo[3,4-c]pyridine] | 1730 | 2.7 | 13.6 | 

Continued, molecule first:

SMILES | EC50 [1] [µM] | EC50 [2] [µM] | EC50 [3] [nM] | inhibition at 10 µM [1] [%] | inhibition at 10 µM [2] [%] | inhibition at 10 µM [3] [%]
Oc1cncc(-c2cc3c(-c4cc5c(-c6ccc(F)cc6)ccnc5[nH]4)n[nH]c3cn2)c1 [Compound 533, 5-(3-(4-(4-Fluorophenyl)-1H-pyrrolo[2,3-b]pyridin-2-yl)-1H-pyrazolo[3,4-c]pyridin-5-yl)pyridin-3-ol] | 0.483 | 0.456 | 3540 |  |  | 
CN(C)CCOc1cncc(-c2cc3c(-c4cc5c(-c6cccnc6)ccnc5[nH]4)n[nH]c3cn2)c1 [Compound 563, N,N-Dimethyl-2-((5-(3-(4-(pyridin-3-yl)-1H-pyrrolo[2,3-b]pyridin-2-yl)-1H-pyrazolo[3,4-c]pyridin-5-yl)pyridin-3-yl)oxy)ethan-1-amine] | > 10 | > 10 | 1110 | 0 | 28.8 | 
c1cc(N2CCCCC2)c2cc(-c3n[nH]c4cnc(C5CCNCC5)cc34)[nH]c2n1 [Compound 601, 3-(4-(Piperidin-1-yl)-1H-pyrrolo[2,3-b]pyridin-2-yl)-5-(piperidin-4-yl)-1H-pyrazolo[3,4-c]pyridine] | > 10 | > 10 | > 10000 | 12 | 0 | 13
